Experimental data from patent publication US9328083B2, “2-aminated methylene or 2-esterified methylene tanshinone derivatives, and preparation method and application thereof” (HANGZHOU BENSHENG PHARMACEUTICAL CO., LTD., priority 2011, dated 2016).
In brackets after ≈: the same amount, converted by molar mass.

Assays:
[1] = tested on: PANC-1 (pancreatic cancer); assay: MTT growth inhibition of human solid tumor cells, 72 h; format: cell-based; details: Homo sapiens, PANC-1, 72 h; for IC50: read-out: IC50; for IC90: read-out: IC90
Procedure: (§1) Hep-2 (laryngeal carcinoma), A549 (human lung cancer), CaES-17 (esophageal cancer cell), PC-3 (prostate cancer), CNE (nasopharyngeal carcinoma cell), and SK-OV-3 (ovarian cancer cell), all of which are purchased from China Center For Type Culture Collection; RKO (human colon adenocarcinoma cell), MGC 803 (human gastric cancer cell), MG63 (osteosarcoma) and U87 MG (malignant glioma cell), all of which are purchased from Fuxiang Bio-tech Co. Ltd., Shanghai, China; PANC-1 (pancreatic cancer), Hep G2 (human liver cancer cell), Becap37 (human breast cancer cell) and Hela (human cervical cancer cell), all of which are donated by Cancer Research Institute of Zhejiang University, China.
(§2) The standard sample of tanshinone I (TA) and the 2-aminated methylene or 2-esterified methylene tanshinone I derivatives of the present invention are sufficiently dissolved with dimethylsulfoxide to produce a stock solution of 10 mg/mL, which is refrigerated at 4° C. and stored in dark, and is diluted with a cell culture medium to the desired concentration prior to experimentation.
(§3) Obtaining 4000 well-growing human solid tumor cells and inoculating them into wells of a 96-well cell culture plate. The culture medium is DMEM High Glucose cell culture medium containing 10% fetal bovine serum. The plate is placed in a carbon dioxide cell incubator (5% CO2) at 37° C. and incubated for 24 hours. After adding the 2-aminated methylene or 2-esterified methylene tanshinone I derivatives of different concentrations and mixing uniformly, the plate is placed in a carbon dioxide cell incubator (5% CO2) at 37° C. and incubated for 72 hours. Then the viable cell concentration is determined by the MTT method.

A549 (human lung cancer) = assay: as above; format: cell-based; details: Homo sapiens, A549, 72 h; for IC50: read-out: IC50; for IC90: read-out: IC90
Procedure: as §1, §2, §3

[2] = tested on: SK-OV-3 (ovarian cancer cell); assay: as above; format: cell-based; details: Homo sapiens, SK-OV-3, 72 h; for IC50: read-out: IC50; for IC90: read-out: IC90
Procedure: as §1, §2, §3

[3] = tested on: RKO (human colon adenocarcinoma cell); assay: as above; format: cell-based; details: Homo sapiens; for IC50: read-out: IC50; for IC90: read-out: IC90
Procedure: as §1, §2, §3

MG63 (osteosarcoma) = assay: as above; format: cell-based; details: Homo sapiens, MG-63, 72 h; for IC50: read-out: IC50; for IC90: read-out: IC90
Procedure: as §1, §2, §3

[4] = tested on: Hep G2 (human liver cancer cell); assay: as above; format: cell-based; details: Homo sapiens, HepG2, Hep G2, 72 h; for IC50: read-out: IC50; for IC90: read-out: IC90
Procedure: as §1, §2, §3

[5] = tested on: Hep-2 (laryngeal carcinoma); assay: as above; format: cell-based; details: Homo sapiens, HEp-2, 72 h; for IC50: read-out: IC50; for IC90: read-out: IC90
Procedure: as §1, §2, §3

[6] = tested on: MGC 803 (human gastric cancer cell); assay: as above; format: cell-based; details: Homo sapiens, MGC-803, 72 h; for IC50: read-out: IC50; for IC90: read-out: IC90
Procedure: as §1, §2, §3

[7] = tested on: CNE (nasopharyngeal carcinoma cell); assay: as above; format: cell-based; details: Homo sapiens; for IC50: read-out: IC50; for IC90: read-out: IC90
Procedure: as §1, §2, §3

[8] = tested on: U87 MG (malignant glioma cell); assay: as above; format: cell-based; details: Homo sapiens, U-87 MG, U87-MG, 72 h; for IC50: read-out: IC50; for IC90: read-out: IC90
Procedure: as §1, §2, §3

[9] = tested on: Hela (human cervical cancer cell); assay: as above; format: cell-based; details: Homo sapiens, HeLa, 72 h; for IC50: read-out: IC50; for IC90: read-out: IC90
Procedure: as §1, §2, §3

PC-3 (prostate cancer) = assay: as above; format: cell-based; details: Homo sapiens, PC-3, 72 h; for IC50: read-out: IC50; for IC90: read-out: IC90
Procedure: as §1, §2, §3

[10] = tested on: CaES-17 (esophageal cancer cell); assay: as above; format: cell-based; details: Homo sapiens, CaEs17, CaEs-17, 72 h; for IC50: read-out: IC50; for IC90: read-out: IC90
Procedure: as §1, §2, §3

[11] = tested on: Becap37 (human breast cancer cell); assay: as above; format: cell-based; details: Homo sapiens, Becap-37, 72 h; for IC50: read-out: IC50; for IC90: read-out: IC90
Procedure: as §1, §2, §3

[12] = tested on: K562/adr (drug-resistant, chronic myeloid leukemia, CML); assay: MTT growth inhibition of leukemia cells, 72 h; format: cell-based, human; details: Homo sapiens, K562/Adr; for IC50: read-out: IC50; for IC90: read-out: IC90
Excerpt: (§4) Leukemia cell lines: leukemia cell lines: K562/adr (drug-resistant, chronic myeloid leukemia, CML), NB4 (acute promyelocytic leukemia, AML), Kasumi-1 (acute myeloid leukemia M2 type, AML-M2), and Jurkat (acute lymphoblastic leukemia, ALL), all of which are donated by Cancer Research Institute of Zhejiang University, China; and H9 (acute lymphoblastic leukemia, ALL), which is purchased from China Center for Type Culture Collection (CCTCC).
as §2
(§5) Obtaining 6000 well-growing leukemia cells and inoculating them into wells of a 96-well cell culture plate. The culture medium is the RPMI-1640 cell culture medium containing 10% fetal bovine serum. After adding on the second day the 2-aminated methylene or 2-esterified methylene tanshinone I derivatives of different concentrations and mixing uniformly, placing the plate in a carbon dioxide cell incubator (5% CO2) at 37° C. and incubated for 72 hours. Then the viable cell concentration is determined by MTT method.

[13] = tested on: H9 (acute lymphoblastic leukemia, ALL); assay: MTT growth inhibition of leukemia cells, 72 h; format: cell-based, human; details: Homo sapiens, H9, 72 h; for IC50: read-out: IC50; for IC90: read-out: IC90
Excerpt: as §4, §2, §5

[14] = tested on: Jurkat (acute lymphoblastic leukemia, ALL); assay: MTT growth inhibition of leukemia cells, 72 h; format: cell-based, human; details: Homo sapiens, 72 h; for IC50: read-out: IC50; for IC90: read-out: IC90
Excerpt: as §4, §2, §5

[15] = tested on: Kasumi-1 (acute myeloid leukemia M2 type, AML-M2); assay: MTT growth inhibition of leukemia cells, 72 h; format: cell-based, human; details: Homo sapiens, Kasumi-1, 72 h; for IC50: read-out: IC50; for IC90: read-out: IC90
Excerpt: as §4, §2, §5

[16] = tested on: NB4 (acute promyelocytic leukemia, AML); assay: MTT growth inhibition of leukemia cells, 72 h; format: cell-based, human; details: Homo sapiens, NB4, 72 h; for IC50: read-out: IC50; for IC90: read-out: IC90
Excerpt: as §4, §2, §5

[17] = tested on: RPMI8226 (multiple myeloma); assay: MTT growth inhibition of multiple myeloma cells, 72 h; format: cell-based, human; details: Homo sapiens, RPMI 8226, 72 h; for IC50: read-out: IC50; for IC90: read-out: IC90
Procedure: Myeloma cell lines: RPMI8226 (multiple myeloma), purchased from Fuxiang Bio-tech Co. Ltd., Shanghai, China.
as §2
as §5, with “myeloma” for “leukemia”, “cells as above” for “cells”, “1640” for “RPMI-1640”, “adding” for “adding on the second day”

For CC[N+](C)(Cc1ccc(F)c(Cl)c1)Cc1oc2c(c1C)C(=O)C(=O)c1c-2ccc2c(C)cccc12 (centres unmarked) [BS-TA-50], the IC50 [1] was 4.24 µg/mL, the IC90 [1] was > 16 µg/mL and the IC50 (A549 (human lung cancer)) was 8.9 µg/mL. For the same molecule, the IC90 (A549 (human lung cancer)) was > 16 µg/mL, the IC50 [2] was > 16 µg/mL and the IC90 [2] was > 16 µg/mL. The IC50 [3] was 2.5 µg/mL, the IC90 [3] was > 16 µg/mL and the IC50 (MG63 (osteosarcoma)) was 1.67 µg/mL. For the same molecule, the IC90 (MG63 (osteosarcoma)) was > 16 µg/mL, the IC50 [4] was > 16 µg/mL and the IC90 [4] was > 16 µg/mL. For the same molecule, the IC50 [5] was 13.7 µg/mL, the IC90 [5] was > 16 µg/mL and the IC50 [6] was 8.91 µg/mL. The IC90 [6] was > 16 µg/mL, the IC50 [7] was 3.87 µg/mL and the IC90 [7] was > 16 µg/mL. The IC50 [8] was 4.67 µg/mL, the IC90 [8] was > 16 µg/mL and the IC50 [9] was 7.78 µg/mL. The IC90 [9] was > 16 µg/mL, the IC50 (PC-3 (prostate cancer)) was 10.7 µg/mL and the IC90 (PC-3 (prostate cancer)) was > 16 µg/mL. The IC50 [10] was 8.45 µg/mL, the IC90 [10] was > 16 µg/mL and the IC50 [11] was 8.1 µg/mL. The IC90 [11] was > 16 µg/mL, the IC50 [12] was 11.2 µg/mL and the IC90 [12] was > 16 µg/mL. The IC50 [13] was 6.25 µg/mL, the IC90 [13] was 15.9 µg/mL and the IC50 [14] was 4.79 µg/mL. For the same molecule, the IC90 [14] was > 16 µg/mL, the IC50 [15] was 5.03 µg/mL and the IC90 [15] was > 16 µg/mL. The IC50 [16] was 0.99 µg/mL, the IC90 [16] was 7 µg/mL and the IC50 [17] was 3.86 µg/mL. The IC90 [17] was 16 µg/mL.
Work on Cc1c(CN(C)CCOC(=O)CNC(=O)OC(C)(C)C)oc2c1C(=O)C(=O)c1c-2ccc2c(C)cccc12 [BS-TA-72] yielded an IC50 [1] of 0.75 µg/mL (≈ 1.44 µM), an IC90 [1] of 8.96 µg/mL (≈ 17.2 µM) and an IC50 (A549 (human lung cancer)) of 1.07 µg/mL (≈ 2.06 µM). The IC90 (A549 (human lung cancer)) was 3.7 µg/mL (≈ 7.11 µM), the IC50 [2] was 5.91 µg/mL (≈ 11.4 µM) and the IC90 [2] was 10.9 µg/mL (≈ 21 µM). It also gave an IC50 [3] of 0.25 µg/mL (≈ 0.48 µM), an IC90 [3] of 2.38 µg/mL (≈ 4.57 µM) and an IC50 (MG63 (osteosarcoma)) of 1.08 µg/mL (≈ 2.07 µM). The IC90 (MG63 (osteosarcoma)) was 2.56 µg/mL (≈ 4.92 µM), the IC50 [4] was 0.71 µg/mL (≈ 1.36 µM) and the IC90 [4] was 3.85 µg/mL (≈ 7.4 µM). For the same molecule, the IC50 [5] was 1.59 µg/mL (≈ 3.05 µM), the IC90 [5] was 3.77 µg/mL (≈ 7.24 µM) and the IC50 [6] was 1.5 µg/mL (≈ 2.88 µM). For the same molecule, the IC90 [6] was 9.94 µg/mL (≈ 19.1 µM), the IC50 [7] was 2.02 µg/mL (≈ 3.88 µM) and the IC90 [7] was 3.61 µg/mL (≈ 6.93 µM). The IC50 [8] was 1.46 µg/mL (≈ 2.8 µM), the IC90 [8] was 3.65 µg/mL (≈ 7.01 µM) and the IC50 [9] was 0.89 µg/mL (≈ 1.71 µM). It also gave an IC90 [9] of 1.84 µg/mL (≈ 3.53 µM), an IC50 (PC-3 (prostate cancer)) of 1.68 µg/mL (≈ 3.23 µM) and an IC90 (PC-3 (prostate cancer)) of 9.92 µg/mL (≈ 19.1 µM). The IC50 [10] was 1.84 µg/mL (≈ 3.53 µM), the IC90 [10] was 3.98 µg/mL (≈ 7.65 µM) and the IC50 [11] was 1.02 µg/mL (≈ 1.96 µM). The IC90 [11] was 1.94 µg/mL (≈ 3.73 µM), the IC50 [12] was 1.5 µg/mL (≈ 2.88 µM) and the IC90 [12] was 2 µg/mL (≈ 3.84 µM). It also gave an IC50 [13] of 0.45 µg/mL (≈ 0.864 µM), an IC90 [13] of 1.6 µg/mL (≈ 3.07 µM) and an IC50 [14] of 0.31 µg/mL (≈ 0.595 µM). For the same molecule, the IC90 [14] was 0.99 µg/mL (≈ 1.9 µM), the IC50 [15] was 0.28 µg/mL (≈ 0.538 µM) and the IC90 [15] was 0.47 µg/mL (≈ 0.903 µM). The IC50 [16] was 0.35 µg/mL (≈ 0.672 µM), the IC90 [16] was 0.71 µg/mL (≈ 1.36 µM) and the IC50 [17] was 0.12 µg/mL (≈ 0.231 µM). The IC90 [17] was 0.87 µg/mL (≈ 1.67 µM).
